These results are taken from patent US7718673B2, “Isonipecotamides for the treatment of integrin-mediated disorders” (Ortho-McNeil Pharmaceutical, Inc., priority 1999, dated 2010).

Some results are limits rather than exact numbers.

The target of assay [1] is RGD-affinity purified GPIIb/IIIa (Homo sapiens, UniProt P05106+P08514). As to the kind of experiment: In vitro solid phase purified GPIIb/IIIa binding assay (biotinylated fibrinogen). As to conditions: fibrinogen binding to immobilized GPIIb/IIIa; read-out: IIb/IIIa IC50. The protocol:
In Vitro Solid Phase Purified GP IIB/IIIA Binding Assay
The plate was covered and incubated overnight at 4° C. The GPIIb/IIIa solution was discarded and 150 μl of 5% BSA was added and incubated at RT for 1-3 h. The plate was washed extensively with modified Tyrodes buffer. Biotinylated fibrinogen (25 μl/well) at 2× final concentration was added to the wells that contain the test compounds (25 μl/well). The plate was covered and incubated at RT for 2-4 h. Twenty minutes prior to incubation completion, one drop of Reagent A (VectaStain ABC Horse Radish Peroxidase kit, Vector Laboratories, Inc.) and one drop Reagent B were added with mixing to 5 mL modified Tyrodes buffer mix and let stand. The ligand solution was discarded and the plate washed (5×200 μl/well) with modified Tyrodes buffer. Vecta Stain HRP-Biotin-Avidin reagent (50 μl/well, as prepared above) was added and incubated at RT for 15 min. The Vecta Stain solution was discarded and the wells washed (5×200 μl/well) with modified Tyrodes buffer. Developing buffer (10 mL of 50 mM citrate/phosphate buffer @ pH 5.3, 6 mg o-phenylenediamine, 6 μl 30% H2O2; 50 μl/well) was added and incubated at RT for 3-5 min, and then 2 NH2SO4 (50 μl/well) was added. The absorbance was read at 490 nm.

For the next assay, the target named is T1, Human αvβ3 (Homo sapiens, UniProt P05106+P06756).
T1 construct: purchased Chemicon International Inc., Temecula, Calif
The experiment in a line: In vitro solid phase purified αvβ3 binding assay (vitronectin/αvβ3). As to conditions: vitronectin binding to immobilized αvβ3; read-out: αvβ3 IC50. The protocol:
In Vitro Solid Phase Purified αvβ3 Binding Assay
The vitronectin/αvβ3 binding assay methods were derived from Mehta et al. (Biochem J. 1998, 330, 861). Human αvβ3 (Chemicon International Inc., Temecula, Calif.), at a concentration of 1 μg/ml dissolved in Tris buffer (20 mM Tris, 1 mM CaCl2, […], 10 μM MnCl2, 150 mM NaCl), was immobilized on Immulon 96 well plates (Dynex Technologies, Chantilly, Va.) overnight at 4° C. Plates were washed and treated with blocking buffer (3% BSA in Tris buffer) for 2 h at 37° C. Plates were then rinsed 2 times with Tris buffer containing 0.3% BSA and 0.2% Tween20 (polyoxyethylenesorbitan monolaurate). Five minutes prior to the addition of 5 nM vitronectin (Sigma, St. Louis, Mo.), synthesized compounds were added to wells in duplicate. Each plate included c-RGDfV as an internal control. Following a 3 hour incubation at 37° C., plates were washed 5 times in assay buffer. An anti-human vitronectin IgG rabbit polyclonal antibody (Calbiochem, San Diego, Calif.) was added (1:2000) and plates were incubated for 1 hour at room temperature. VectaStain ABC peroxidase kit reagents (Vector Laboratories, Burlingame, Calif.) employing a biotin labeled anti-rabbit IgG, were utilized for detection of bound antibody. Plates were read at 490 nm on a Molecular Devices (Sunnyvale, Calif.) microplate reader.

Chain of RGD-affinity purified GPIIb/IIIa (P08514 32-887 limits assumed): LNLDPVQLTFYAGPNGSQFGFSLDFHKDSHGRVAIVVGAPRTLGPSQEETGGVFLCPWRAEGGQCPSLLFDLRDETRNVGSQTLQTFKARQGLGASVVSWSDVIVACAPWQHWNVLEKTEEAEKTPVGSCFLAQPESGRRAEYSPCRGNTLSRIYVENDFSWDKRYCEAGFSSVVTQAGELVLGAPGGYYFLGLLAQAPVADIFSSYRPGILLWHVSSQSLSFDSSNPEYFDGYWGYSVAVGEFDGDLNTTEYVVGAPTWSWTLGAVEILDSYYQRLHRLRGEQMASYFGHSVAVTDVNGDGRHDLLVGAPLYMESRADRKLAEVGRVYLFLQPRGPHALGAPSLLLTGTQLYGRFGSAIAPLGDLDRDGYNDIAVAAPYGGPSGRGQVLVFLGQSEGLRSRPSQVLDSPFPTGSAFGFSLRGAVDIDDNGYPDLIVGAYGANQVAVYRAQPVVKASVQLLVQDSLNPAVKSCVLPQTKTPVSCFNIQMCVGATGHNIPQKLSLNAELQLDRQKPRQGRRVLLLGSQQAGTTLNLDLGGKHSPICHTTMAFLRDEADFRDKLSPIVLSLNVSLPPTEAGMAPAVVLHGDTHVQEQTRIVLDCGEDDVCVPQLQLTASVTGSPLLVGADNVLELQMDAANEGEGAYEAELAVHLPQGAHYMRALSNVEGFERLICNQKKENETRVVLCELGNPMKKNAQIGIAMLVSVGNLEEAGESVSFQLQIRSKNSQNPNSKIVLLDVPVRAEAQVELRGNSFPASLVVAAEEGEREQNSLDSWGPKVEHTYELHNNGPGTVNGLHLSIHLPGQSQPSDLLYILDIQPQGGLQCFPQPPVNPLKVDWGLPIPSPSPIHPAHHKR
Chain of RGD-affinity purified GPIIb/IIIa (P08514 891-1039 partner limits assumed): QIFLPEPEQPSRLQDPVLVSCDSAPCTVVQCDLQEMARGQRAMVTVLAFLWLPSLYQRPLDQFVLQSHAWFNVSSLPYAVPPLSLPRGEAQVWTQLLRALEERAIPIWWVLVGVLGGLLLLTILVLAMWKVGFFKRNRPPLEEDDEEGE
Chain of RGD-affinity purified GPIIb/IIIa (P05106 27-788): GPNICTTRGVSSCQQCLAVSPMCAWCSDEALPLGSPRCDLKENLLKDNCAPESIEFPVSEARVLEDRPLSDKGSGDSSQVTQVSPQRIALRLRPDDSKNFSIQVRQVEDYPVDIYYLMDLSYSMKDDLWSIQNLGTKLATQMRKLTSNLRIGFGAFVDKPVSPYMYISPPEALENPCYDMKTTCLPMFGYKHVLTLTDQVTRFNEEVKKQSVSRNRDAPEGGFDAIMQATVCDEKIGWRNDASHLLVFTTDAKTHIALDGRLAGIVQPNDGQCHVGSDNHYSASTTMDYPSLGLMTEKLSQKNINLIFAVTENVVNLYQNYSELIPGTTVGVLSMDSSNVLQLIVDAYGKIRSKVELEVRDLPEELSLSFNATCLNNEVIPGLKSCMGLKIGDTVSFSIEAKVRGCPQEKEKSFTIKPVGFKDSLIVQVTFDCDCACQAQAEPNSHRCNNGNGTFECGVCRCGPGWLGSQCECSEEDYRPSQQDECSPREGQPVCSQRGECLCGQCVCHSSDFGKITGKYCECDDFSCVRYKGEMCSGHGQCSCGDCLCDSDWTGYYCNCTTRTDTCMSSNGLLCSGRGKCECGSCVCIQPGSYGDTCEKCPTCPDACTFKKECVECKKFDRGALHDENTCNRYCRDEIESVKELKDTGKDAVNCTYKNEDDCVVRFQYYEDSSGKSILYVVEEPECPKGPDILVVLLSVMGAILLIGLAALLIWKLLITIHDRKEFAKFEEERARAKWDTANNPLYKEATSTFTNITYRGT
T1 sequence (P06756 31-889 limits assumed): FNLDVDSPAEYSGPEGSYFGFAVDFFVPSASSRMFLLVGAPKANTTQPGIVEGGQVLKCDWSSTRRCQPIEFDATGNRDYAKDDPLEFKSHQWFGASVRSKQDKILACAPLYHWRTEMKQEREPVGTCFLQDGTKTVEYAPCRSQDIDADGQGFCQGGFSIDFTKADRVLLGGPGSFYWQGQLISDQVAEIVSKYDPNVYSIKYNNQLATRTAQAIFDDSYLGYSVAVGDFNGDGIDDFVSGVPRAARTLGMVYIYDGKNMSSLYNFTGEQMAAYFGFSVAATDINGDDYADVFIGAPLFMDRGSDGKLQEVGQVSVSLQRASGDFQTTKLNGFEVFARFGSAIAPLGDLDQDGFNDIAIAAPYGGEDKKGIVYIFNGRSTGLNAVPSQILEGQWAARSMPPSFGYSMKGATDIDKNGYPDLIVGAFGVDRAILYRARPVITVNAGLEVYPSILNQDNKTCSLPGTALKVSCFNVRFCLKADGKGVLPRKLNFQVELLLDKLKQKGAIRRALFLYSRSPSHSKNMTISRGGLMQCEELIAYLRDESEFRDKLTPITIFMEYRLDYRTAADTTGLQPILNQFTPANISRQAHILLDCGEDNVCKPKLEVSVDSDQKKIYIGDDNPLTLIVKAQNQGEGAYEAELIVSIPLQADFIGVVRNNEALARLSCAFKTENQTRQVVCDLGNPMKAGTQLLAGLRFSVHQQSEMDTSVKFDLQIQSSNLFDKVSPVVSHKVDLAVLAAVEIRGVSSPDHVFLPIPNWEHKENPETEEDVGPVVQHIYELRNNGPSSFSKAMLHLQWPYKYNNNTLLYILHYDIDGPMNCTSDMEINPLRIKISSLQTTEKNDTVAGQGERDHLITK
T1 sequence (P06756 891-1048 partner limits assumed): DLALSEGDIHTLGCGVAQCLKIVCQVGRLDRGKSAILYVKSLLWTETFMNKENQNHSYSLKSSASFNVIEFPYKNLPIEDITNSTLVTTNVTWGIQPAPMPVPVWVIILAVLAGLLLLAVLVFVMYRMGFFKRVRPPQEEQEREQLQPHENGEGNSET
T1 sequence (P05106 27-788): as the sequence (P05106 27-788) above

Turning to `O=C(N[C@@H](CNC(=O)C1CCN(C(=O)[C@@H]2C=C[C@H](NC3=NCCN3)C2)CC1)C(=O)O)OCc1ccccc1` [Compound 14, 3-[[[1-[[(1S,4R)-4-[(4,5-dihydro-1H-imidazol-2-yl)amino]-2-cyclopenten-1-yl]carbonyl]-4-piperidinyl]carbonyl]amino]-N-[(phenylmethoxy)carbonyl]-L-alanine], the IC50 in assay [1] worked out at 9.2 nM; on Human αvβ3 it was 50 nM.
Take `O=C(O)CC(NC(=O)C1CCN(C(=O)CCCNC2=NCCN2)CC1)c1cccnc1` (centres unmarked) [Compound 25]: the IC50 in assay [1] came out at 2900 nM; on Human αvβ3, 32 nM.
For `O=C(O)C[C@H](NC(=O)C1CCN(C(=O)CCCNc2ccccn2)CC1)c1cccnc1` [Compound 30], the IC50 is 56000 nM in assay [1] and 140 nM on Human αvβ3.
On to `O=C(N[C@@H](CNC(=O)C1CCN(C(=O)C2CCN(C3=NCCN3)CC2)CC1)C(=O)O)OCc1ccccc1` [Compound 11, 3-[[[1-[[1-(4,5-dihydro-1H-imidazol-2-yl)-4-piperidinyl]carbonyl]-4-piperidinyl]carbonyl]amino]-N-[(phenylmethoxy)carbonyl]-L-alanine], for which the IC50 in assay [1] came out at 2.6 nM; on Human αvβ3, 1300 nM.
In the case of `O=C(O)CC(NC(=O)C1CCN(C(=O)CCCNC2=NCCN2)CC1)c1cc(Cl)cc(Cl)c1` (centres unmarked) [Compound 26], the IC50 in assay [1] turned out to be 1800 nM; at Human αvβ3 it was 120 nM.
On to `O=C(O)CC(NC(=O)C1CCN(C(=O)CCCNc2ccccn2)CC1)c1ccc2c(c1)OCO2` (stereo not drawn) [Compound 62, β-[[[1-[1-oxo-4-(2-pyridinylamino)butyl]-4-piperidinyl]carbonyl]amino]-1,3-benzodioxole-5-propanoic acid], for which the IC50 in assay [1] was 380 nM; at Human αvβ3 it was above 500 nM.
As to `O=C(O)CC(NC(=O)C1CCN(C(=O)CCCNC2=NCCN2)CC1)c1ccsc1` (centres unmarked) [Compound 20], the figures for the IC50 (in assay [1]; on Human αvβ3) were 4900 nM and 530 nM, respectively.
In the case of `O=C(N[C@@H](CNC(=O)C1CCN(C(=O)[C@H]2C=C[C@@H](NC3=NCCN3)C2)CC1)C(=O)O)OCc1ccccc1` [Compound 17, 3-[[[1-[[(1R,4S)-4-[(4,5-dihydro-1H-imidazol-2-yl)amino]-2-cyclopenten-1-yl]carbonyl]-4-piperidinyl]carbonyl]amino]-N-[(phenylmethoxy)carbonyl]-L-alanine], the IC50 in assay [1] came to 5.4 nM; on Human αvβ3, 380 nM.
Turning to `O=C(O)CC(NC(=O)C1CCN(C(=O)CCCNC2=NCCN2)CC1)c1ccc(F)c(F)c1` (centres unmarked) [Compound 43], the IC50 worked out at 1300 nM in assay [1] and 230 nM on Human αvβ3.
Regarding `O=C(N[C@@H](CNC(=O)C1CCN(C(=O)OCCNC2=NCCN2)CC1)C(=O)O)OCc1ccccc1` [Compound 28, 4-[[[(2S)-2-carboxy-2-[[(phenylmethoxy)carbonyl]amino]ethyl]amino]carbonyl]-, 2-[(4,5-dihydro-1H-imidazol-2-yl)amino]ethyl ester 1-piperidinecarboxylic acid], the results for the IC50 (in assay [1]; at Human αvβ3) were 1500 nM and 8.2 nM, respectively.
As for `CC(CNC1=NCCN1)CC(=O)N1CCC(C(=O)NC[C@H](NC(=O)OCc2ccccc2)C(=O)O)CC1` (some centres unmarked) [Compound 54], the IC50 in assay [1] came to 13 nM; on Human αvβ3, 72 nM.
`O=C(N[C@@H](CNC(=O)C1CCN(C(=O)/C=C/CNC2=NCCN2)CC1)C(=O)O)OCc1ccccc1` [Compound 55]: the IC50 in assay [1] was found to be 26 nM; on Human αvβ3 it was 12 nM.
Turning to `O=C(O)CC(NC(=O)C1CCN(C(=O)CCc2nc3ccccc3[nH]2)CC1)c1cnc2ccccc2c1` (centres unmarked) [Compound 7], the IC50 in assay [1] was found to be 7900 nM; on Human αvβ3, 490 nM.
